Data from patent US5593970A, “Heterocyclic anthracycline analogs” (priority 1994, dated 1997).
Where “and” joins values, the source holds several entries; their conditions need not be identical. Identical values can stand only once. Like-named read-outs stand apart in the source and are kept apart here.

Assays:
Assay in all cases: NCI sulforhodamine B assay
Type in all cases: cell-based, human
SK-MEL-2 = test system: SK-MEL-2
Experimental: (§1) These assays were carried out at the Developmental Therapeutics Program, Division of Cancer Treatment, National Cancer Institute (Bethesda, Md., U.S.A.). The method consists of incubating varying concentrations of the drug with an inoculum of cells for two days. […] The 57 cell lines included two mouse leukemia lines (P388 parental and adriamycin resistant) and […] human cell lines.
(§2) It should be noted that the first two parameters (GI50 and TGI) relate to antiproliferation effects while the third one (LC50) indicates true cytotoxicity. A value of -4 or greater is considered to denote resistance (inactivity).

SF-539 = test system: SF-539
Experimental: as §1, §2

MCF-7/ADR = test system: MCF-7/ADR
Experimental: as §1, §2

SW-620 = conditions: for GI50: Homo sapiens, read-out: Log10 GI50 (converted)
Experimental: as §1, §2

EKVX = test system: EKVX
Experimental: as §1, §2

OVCAR-4 = test system: OVCAR-4
Experimental: as §1, §2

RPMI-8226 = conditions: 2880 min
Experimental: as §1, §2

HCC-2998 = test system: HCC-2998
Experimental: as §1, §2

SNB-75 = test system: SNB-75
Experimental: as §1, §2

UACC-62 = test system: UACC-62
Experimental: as §1, §2

NCl-H226 = test system: NCl-H226
Experimental: as §1, §2

SK-MEL-5 = test system: SK-MEL-5
Experimental: as §1, §2

HOP-92 = test system: HOP-92
Experimental: as §1, §2

NCl-H23 = test system: NCl-H23
Experimental: as §1, §2

SF-295 = test system: SF-295
Experimental: as §1, §2

UACC-257 = test system: UACC-257
Experimental: as §1, §2

OVCAR-5 = test system: OVCAR-5
Experimental: as §1, §2

LOX-IMVI = test system: LOX-IMVI
Experimental: as §1, §2

SN-12C = test system: SN-12C
Experimental: as §1, §2

SK-MEL-28 = test system: SK-MEL-28
Experimental: as §1, §2

HCT-15 = conditions: 2880 min
Experimental: as §1, §2

[1] = Homo sapiens, 48 h, read-out: Log10 TGI (converted)
[2] = Homo sapiens, read-out: Log10 GI50 (converted)

Structure (SMILES): COC(=O)C1CC2=C(C(=O)c3c(cc4ccccc4c3O)C2=O)C(O[C@H]2C[C@H](NC(=O)C(F)(F)F)[C@H](O)[C@H](C)O2)O1 (mixture of isomers) [BCH-242, (1'S,1R,3S) and (1'S, 1S,3R)-Methyl[11-hydroxy-1-2',3',6'-trideoxy-3-trifluroacetamido-L-lyxohexopyranose)-5,12-dioxo-3,4,5,12-tetrahydroanthraceno[2,3-c]pyran-3-yl]formate]
- CC50 (SK-MEL-2; Homo sapiens, SK-MEL-2, 48 h, read-out: Log10 LC50, SK-MEL-2 (converted)): 5.75 µM
- Log10 LC50 (SK-MEL-2; SK-MEL-2, 2880 min): -5.39 log molar
- IC100 (SF-539; Homo sapiens, SF-539, 48 h, SF-539, read-out: Log10 TGI (converted)): 4.37 µM
- CC50 (SF-539; Homo sapiens, SF-539, 48 h, read-out: Log10 LC50, SF-539 (converted)): 9.33 µM
- GI50 (SF-539; Homo sapiens, SF-539, SF-539, read-out: Log10 GI50 (converted)): 2.04 µM
- Log10 GI50 (SF-539; SF-539): -5.90 log molar
- Log10 TGI (SF-539; SF-539): -5.60 log molar
- Log10 LC50 (SF-539; SF-539, 2880 min): -5.30 log molar
- CC50 (MCF-7/ADR; Homo sapiens, NCI/ADR-RES, 48 h, read-out: Log10 LC50, MCF-7/ADR (converted)): 7.08 µM
- Log10 LC50 (MCF-7/ADR; MCF-7/ADR, 2880 min): -5.15 log molar and -5.40 log molar
- GI50 (SW-620; SW-620, SW-620): > 100 µM
- GI50 (SW-620; SW-620): 1.32 µM
- Log10 LC50 (SW-620; SW-620, 2880 min): -5.19 log molar
- Log10 GI50 (EKVX): -5.83 log molar
- Log10 LC50 (EKVX; 2880 min): -5.27 log molar
- CC50 (EKVX; Homo sapiens, 48 h, read-out: Log10 LC50, EKVX (converted)): 6.31 µM
- IC100 (EKVX; [1]): 3.39 µM
- GI50 (EKVX; [2]): 1.78 µM
- IC100 (OVCAR-4; Homo sapiens, OVCAR-4, 48 h, OVCAR-4, read-out: Log10 TGI (converted)): 3.31 µM
- CC50 (OVCAR-4; Homo sapiens, OVCAR-4, 48 h, read-out: Log10 LC50, OVCAR-4 (converted)): 6.03 µM
- Log10 GI50 (OVCAR-4; OVCAR-4): -5.94 log molar
- Log10 TGI (OVCAR-4; OVCAR-4): -5.63 log molar
- Log10 LC50 (OVCAR-4; OVCAR-4, 2880 min): -5.31 log molar
- Log10 LC50 (RPMI-8226): -4.47 log molar
- Log10 GI50 (HCC-2998; HCC-2998): -5.92 log molar
- GI50 (HCC-2998; Homo sapiens, HCC 2998, HCC-2998, read-out: Log10 GI50 (converted)): 2.34 µM
- IC100 (SNB-75; Homo sapiens, SNB-75, 48 h, SNB-75, read-out: Log10 TGI (converted)): 8.71 µM
- CC50 (SNB-75; Homo sapiens, SNB-75, 48 h, read-out: Log10 LC50, SNB-75 (converted)): 30.2 µM
- GI50 (SNB-75; Homo sapiens, SNB-75, SNB-75, read-out: Log10 GI50 (converted)): 2.95 µM
- Log10 GI50 (SNB-75; SNB-75): -5.63 log molar
- Log10 TGI (SNB-75; SNB-75): -5.25 log molar
- Log10 LC50 (SNB-75; SNB-75, 2880 min): -4.73 log molar
- IC100 (UACC-62; Homo sapiens, UACC-62, 48 h, UACC-62, read-out: Log10 TGI (converted)): 3.16 µM
- CC50 (UACC-62; Homo sapiens, UACC-62, 48 h, read-out: Log10 LC50, UACC-62 (converted)): 5.62 µM
- Log10 TGI (UACC-62; UACC-62): -5.77 log molar
- Log10 LC50 (UACC-62; UACC-62, 2880 min): -5.37 log molar
- Log10 GI50 (NCl-H226): -5.71 log molar
- Log10 TGI (NCl-H226): -5.44 log molar
- IC100 (NCl-H226; [1]): 6.61 µM
- GI50 (NCl-H226; [2]): 2.75 µM
- IC100 (SK-MEL-5; Homo sapiens, SK-MEL-5, 48 h, SK-MEL-5, read-out: Log10 TGI (converted)): 2.82 µM
- CC50 (SK-MEL-5; Homo sapiens, SK-MEL-5, 48 h, read-out: Log10 LC50, SK-MEL-5 (converted)): 5.5 µM
- Log10 TGI (SK-MEL-5; SK-MEL-5): -5.73 log molar
- Log10 LC50 (SK-MEL-5; SK-MEL-5, 2880 min): -5.36 log molar
- Log10 LC50 (HOP-92; HOP-92, 2880 min): -5.36 log molar
- CC50 (HOP-92; Homo sapiens, HOP-92, 48 h, read-out: Log10 LC50, HOP-92 (converted)): 6.76 µM
- IC100 (NCl-H23; Homo sapiens, 48 h, NCl-H23, read-out: Log10 TGI (converted)): 3.24 µM
- CC50 (NCl-H23; Homo sapiens, NCI-H23, 48 h, read-out: Log10 LC50, NCl-H23 (converted)): 5.89 µM
- Log10 GI50 (NCl-H23; NCl-H23): -5.99 log molar
- Log10 TGI (NCl-H23; NCl-H23): -5.65 log molar
- Log10 LC50 (NCl-H23; NCl-H23, 2880 min): -5.31 log molar
- IC100 (SF-295; Homo sapiens, SF-295, 48 h, SF-295, read-out: Log10 TGI (converted)): 7.08 µM
- GI50 (SF-295; Homo sapiens, SF-295, SF-295, read-out: Log10 GI50 (converted)): 2.4 µM
- Log10 GI50 (SF-295; SF-295): -5.70 log molar
- Log10 TGI (SF-295; SF-295): -5.41 log molar
- CC50 (UACC-257; Homo sapiens, UACC-257, 48 h, read-out: Log10 LC50, UACC-257 (converted)): 6.61 µM
- Log10 LC50 (UACC-257; UACC-257, 2880 min): -5.47 log molar
- IC100 (OVCAR-5; Homo sapiens, OVCAR-5, 48 h, OVCAR-5, read-out: Log10 TGI (converted)): 3.47 µM
- CC50 (OVCAR-5; Homo sapiens, OVCAR-5, 48 h, read-out: Log10 LC50, OVCAR-5 (converted)): 5.89 µM
- GI50 (OVCAR-5; Homo sapiens, OVCAR-5, OVCAR-5, read-out: Log10 GI50 (converted)): 2 µM
- Log10 GI50 (OVCAR-5; OVCAR-5): -5.73 log molar
- Log10 TGI (OVCAR-5; OVCAR-5): -5.49 log molar
- Log10 LC50 (OVCAR-5; OVCAR-5, 2880 min): -5.24 log molar
- CC50 (LOX-IMVI; Homo sapiens, LOX IMVI, 48 h, read-out: Log10 LC50, LOX-IMVI (converted)): 5.75 µM
- Log10 LC50 (LOX-IMVI; LOX-IMVI, 2880 min): -5.43 log molar
- IC100 (SN-12C; Homo sapiens, SN12C, 48 h, SN-12C, read-out: Log10 TGI (converted)): 3.02 µM
- CC50 (SN-12C; Homo sapiens, SN12C, 48 h, read-out: Log10 LC50, SN-12C (converted)): 5.5 µM
- GI50 (SN-12C; Homo sapiens, SN12C, SN-12C, read-out: Log10 GI50 (converted)): 1.62 µM
- Log10 GI50 (SN-12C; SN-12C): -5.94 log molar
- Log10 TGI (SN-12C; SN-12C): -5.62 log molar
- Log10 LC50 (SN-12C; SN-12C, 2880 min): -5.31 log molar
- CC50 (SK-MEL-28; Homo sapiens, SK-MEL-28, 48 h, read-out: Log10 LC50, SK-MEL-28 (converted)): 7.76 µM
- Log10 LC50 (SK-MEL-28; SK-MEL-28, 2880 min): -5.37 log molar
- Log10 LC50 (HCT-15): -5.38 log molar
